Experiments:
[1] = Precipitation of LD from / clarity of LDEE solutions on holding
Procedure: 150 mg of LDEE was dissolved in 3 mL of physiological saline (0.90% weight/volume of NaCl/water) at about 23° C., then at about 37° C. an additional amount of 22 mg of LDEE was added for a total LDEE concentration of about 57.3 mg/mL or about 0.25M.
At the ambient temperature of about 23° C., 226 mg of LDEE was dissolved in 1 mL of 1 M HCl. To the formed aqueous LDEE.HCl solution an additional amount of about 184 mg LDEE was added, followed by about 0.1 mL deionized water.
At the ambient temperature of about 23° C., about 113 mg of LDEE was dissolved in 1 mL of 1 M HCl. To the formed aqueous LDEE.HCl solution an additional amount of about 87 mg LDEE was added, followed by about 0.1 mL distilled water.
At the ambient temperature of about 23° C., about 226 mg of LDEE was dissolved in 1 mL of 1 M acetic acid. To the formed aqueous LDEE acetate salt solution an additional amount of about 168 mg LDEE was added. […] The pH of the resulting suspension was about 7.01 at about 26.4° C.
1.7 g of LDEE (7.5 millimoles) was dissolved in 1.405 mL of aqueous 5M HCl, then enough trisodium citrate was added to increase the pH to 5.5.
After flushing with nitrogen, the solution was kept for 7 days at 23±2° C. in a vial sealed with a grey elastomeric, substantially oxygen impermeable septum.

[2] = pH change of LDEE.HCl solutions on holding; format: physicochemical; details: for pH of about 0.48M LDEE•HCl Solution / pH of about 0.95M LDEE•HCl Solution: 40° C.; for pH: about 2.7 M
Procedure: An about 2.6 M LDEE.HCl pH 2.1 aqueous solution was prepared by dissolving 1.506 g LDEE in 1.3 mL of aqueous 5M HCl and adjusting the pH by adding 0.24 μL of 1 M HCl. […] After 24 hours, the pH was 2.0.
To determine whether hydrolysis of subcutaneously infusible solutions of 0.95 M and 0.48 M LDEE.HCl concentrations excessively lowers their pH or drives their LD concentration beyond the saturation point where LD could precipitate, their starting pH of less <3 adjusted by adding an about 1.5 M trisodium citrate solution, were kept at 40° C. for 24 hrs.

## CCOC(=O)[C@@H](N)Cc1ccc(O)c(O)c1.Cl [LDEE.HCl, LDEE Hydrochloride]
[1]; about 0.7 M LDEE + LDEE.HCl, pH about 6.87, 37° C., 3 hours
  precipitation of LD: no precipitation
[1]; about 0.7 M LDEE + LDEE.HCl, pH about 6.87, 37° C., 16 hours
  precipitation of LD: extensive precipitation of LD
[1]; about 1.3 M LDEE + LDEE.HCl, pH about 6.75, 37° C., 3 hours
  precipitation of LD: no precipitation
[1]; about 1.3 M LDEE + LDEE.HCl, pH about 6.75, 37° C., 16 hours
  precipitation of LD: extensive precipitation of LD
[2]; 0 h, starting pH 4.19
  pH of about 0.48M LDEE•HCl Solution: 4.19
[2]; 0 h, starting pH 4.2
  pH of about 0.95M LDEE•HCl Solution: 4.2
[2]; 0 h, starting pH 4.4
  pH of about 0.95M LDEE•HCl Solution: 4.4
[2]; 0 h, starting pH 4.45
  pH of about 0.48M LDEE•HCl Solution: 4.45
[2]; 0 h, starting pH 4.59
  pH of about 0.48M LDEE•HCl Solution: 4.59
[2]; 0 h, starting pH 4.6
  pH of about 0.95M LDEE•HCl Solution: 4.6
[2]; 0 h, starting pH 4.78
  pH of about 0.48M LDEE•HCl Solution: 4.78
[2]; 0 h, starting pH 4.82
  pH of about 0.95M LDEE•HCl Solution: 4.82
[2]; 0 h, starting pH 5.01
  pH of about 0.48M LDEE•HCl Solution: 5.01
  pH of about 0.95M LDEE•HCl Solution: 5.01
[2]; 0 h, starting pH 5.3
  pH of about 0.95M LDEE•HCl Solution: 5.3
[2]; 0 h, starting pH 5.31
  pH of about 0.48M LDEE•HCl Solution: 5.31
[2]; 0 h, starting pH 5.6
  pH of about 0.95M LDEE•HCl Solution: 5.6
[2]; 0 h, starting pH 5.61
  pH of about 0.48M LDEE•HCl Solution: 5.61
[2]; 2 h, starting pH 4.19
  pH of about 0.48M LDEE•HCl Solution: 4.43
[2]; 2 h, starting pH 4.2
  pH of about 0.95M LDEE•HCl Solution: 4.19
[2]; 2 h, starting pH 4.4
  pH of about 0.95M LDEE•HCl Solution: 4.38
[2]; 2 h, starting pH 4.45
  pH of about 0.48M LDEE•HCl Solution: 4.58
[2]; 2 h, starting pH 4.59
  pH of about 0.48M LDEE•HCl Solution: 4.68
[2]; 2 h, starting pH 4.6
  pH of about 0.95M LDEE•HCl Solution: 4.61
[2]; 2 h, starting pH 4.78
  pH of about 0.48M LDEE•HCl Solution: 4.85
[2]; 2 h, starting pH 4.82
  pH of about 0.95M LDEE•HCl Solution: 4.74
[2]; 2 h, starting pH 5.01
  pH of about 0.48M LDEE•HCl Solution: 5.01
  pH of about 0.95M LDEE•HCl Solution: 5.01
[2]; 2 h, starting pH 5.3
  pH of about 0.95M LDEE•HCl Solution: 5.34
[2]; 2 h, starting pH 5.31
  pH of about 0.48M LDEE•HCl Solution: 5.42
[2]; 2 h, starting pH 5.6
  pH of about 0.95M LDEE•HCl Solution: 5.68
[2]; 2 h, starting pH 5.61
  pH of about 0.48M LDEE•HCl Solution: 5.65
[2]; 6 h, starting pH 4.19
  pH of about 0.48M LDEE•HCl Solution: 4.34
[2]; 6 h, starting pH 4.2
  pH of about 0.95M LDEE•HCl Solution: 4.02
[2]; 6 h, starting pH 4.4
  pH of about 0.95M LDEE•HCl Solution: 4.28
[2]; 6 h, starting pH 4.45
  pH of about 0.48M LDEE•HCl Solution: 4.54
[2]; 6 h, starting pH 4.59
  pH of about 0.48M LDEE•HCl Solution: 4.6
[2]; 6 h, starting pH 4.6
  pH of about 0.95M LDEE•HCl Solution: 4.53
[2]; 6 h, starting pH 4.78
  pH of about 0.48M LDEE•HCl Solution: 4.71
[2]; 6 h, starting pH 4.82
  pH of about 0.95M LDEE•HCl Solution: 4.69
[2]; 6 h, starting pH 5.01
  pH of about 0.48M LDEE•HCl Solution: 4.9
  pH of about 0.95M LDEE•HCl Solution: 4.84
[2]; 6 h, starting pH 5.3
  pH of about 0.95M LDEE•HCl Solution: 5.21
[2]; 6 h, starting pH 5.31
  pH of about 0.48M LDEE•HCl Solution: 5.23
[2]; 6 h, starting pH 5.6
  pH of about 0.95M LDEE•HCl Solution: 5.53
[2]; 6 h, starting pH 5.61
  pH of about 0.48M LDEE•HCl Solution: 5.53
[2]; 24 h, starting pH 4.2
  pH of about 0.95M LDEE•HCl Solution: 3.86
[2]; 24 h, starting pH 4.4
  pH of about 0.95M LDEE•HCl Solution: 4.03
[2]; 24 h, starting pH 4.45
  pH of about 0.48M LDEE•HCl Solution: 4.19
[2]; 24 h, starting pH 4.59
  pH of about 0.48M LDEE•HCl Solution: 4.32
[2]; 24 h, starting pH 4.6
  pH of about 0.95M LDEE•HCl Solution: 4.22
[2]; 24 h, starting pH 4.78
  pH of about 0.48M LDEE•HCl Solution: 4.52
[2]; 24 h, starting pH 4.82
  pH of about 0.95M LDEE•HCl Solution: 4.36
[2]; 24 h, starting pH 5.01
  pH of about 0.48M LDEE•HCl Solution: 4.6
  pH of about 0.95M LDEE•HCl Solution: 4.58
[2]; 24 h, starting pH 5.3
  pH of about 0.95M LDEE•HCl Solution: 4.8
[2]; 24 h, starting pH 5.31
  pH of about 0.48M LDEE•HCl Solution: 4.91
[2]; 24 h, starting pH 5.6
  pH of about 0.95M LDEE•HCl Solution: 5.19
[2]; 24 h, starting pH 5.61
  pH of about 0.48M LDEE•HCl Solution: 5.23
[2]; about 2.6 M, starting pH 2.1, 23±2° C.
  pH after 24 hours: 2.0
[2]; start pH about 4.49, 24 h at 40° C.
  pH: 4.2
[2]; start pH about 4.49, 48 h at 40° C.
  pH: 4.0

— patent publication US20140088192A1, “SUBCUTANEOUSLY INFUSIBLE LEVODOPA PRODRUG COMPOSITIONS AND METHODS OF INFUSION” (SynAgile Corporation, priority 2010, published 2014)
